Source: US20040241098A1, “Fungicidal mixture containing arylamidine derivatives” (priority 2001, published 2004)

Experiments:
[1] = tested on: Wheat powdery mildew (Erysiphe graminis); experiment: open field trial on wheat, powdery mildew; format: in vivo; details: natural contamination, measured 59 days after the application
Experimental: (§1) They are intended to give an illustration of the efficacy of the compositions according to the invention on cereal diseases, in particular the compositions combining compound (A), having the chemical name N-ethyl-N-methyl-N′-[4-(chloro-3-trifluoromethylphénoxy)-2,5-xylyl]formamidine, with fungicidal compounds of the triazole and morpholine type. The trials on cereals were carried out in an open field.
(§2) The objective of these field trials is therefore to test the efficacy of compounds (A) of formula (I), in particular N-ethyl-N-methyl-N′-[4-(chloro-3-trifluoromethylphenoxy)-2,5-xylyl]formamidine, alone at 125 g/ha and combined with 2 fungicides which are commercially available: fluquinconazole (100 g/ha) and fenpropimorph (750 g/ha) representing 2 classes of fungicidal compounds. Powdery mildew, brush rust and Septoria disease mycosphaerella graminicola (Septoria tritici) are the principal diseases treated.
The products tested are therefore
N-ethyl-N-methyl-N′-[4-(chloro-3-trifluorométhylphénoxy)-2,5-xylyl]-formamidine as compound (A) at 125 g/ha as an EC type formulation at 100 g/l, fluquinconazole as compound (B) at 100 g/ha as a formulation at 100 g/l, fenpropimorph as another compound (B) at 750 g/ha at 750 g/l, compound (A) and fluquinconazole combination at 125+100 g/ha as a fresh preparation, compound (A) and fenpropimorph combination at 125+750 g/ha, also as a fresh preparation, epoxyconazole+kresoxim-methyl at 125+125 g/ha on the 3 diseases, quinoxyfen at 150 g/ha on powdery mildew.
(§3) Each trial comprises 3 repeats and untreated control plots are included in the experimental design in order to measure the severity of the diseases.
All the trials are conducted under natural contamination conditions. The equipment for application is a constant compressed air pressure back sprayer. The spray nozzles have slits. […]

[2] = tested on: powdery mildew, brown rust and Septoria disease; experiment: open field trials on cereals, conclusion over the 3 diseases; format: in vivo
Experimental: as §1, §2, §3
All the trials are conducted under natural contamination conditions. The equipment for application is a constant compressed air pressure back sprayer. The spray nozzles have slits.
The efficacy results are obtained from controls carried out in the field: […]

Question: For `O=c1c2cc(F)ccc2nc(-n2cncn2)n1-c1ccc(Cl)cc1Cl` [Fluquinconazole, fluquinconazole], which “efficacy / persistence of activity on wheat powdery mildew” value (from here on “efficacy / persistence of activity”) [1] is on record?
Answer: no longer have an activity

Question: With `Fc1ccc(Oc2ccnc3cc(Cl)cc(Cl)c23)cc1` [Quinoxyfen, quinoxyfen] as the compound, how does the “efficacy / persistence of activity” value [1] read?
Answer: low but significant efficacy

Question: Which “effect on persistence of activity of compounds (B)” value ([2]; 3 major cereal diseases: powdery mildew, brown rust and Septoria disease) does the source give for `CCN(C)C=Nc1cc(C)c(Oc2ccc(Cl)c(C(F)(F)F)c2)cc1C` [compound (A), N-ethyl-N-methyl-N′-[4-(chloro-3-trifluoromethylphénoxy)-2,5-xylyl]formamidine] here?
Answer: significantly improve the persistence of activity of compounds (B) fluquinconazole and fenpropimorph

Question: And the persistence of activity ([2]; compound alone)?
Answer: not very persistent by itself

Question: `CC(Cc1ccc(C(C)(C)C)cc1)CN1C[C@@H](C)O[C@@H](C)C1` (some centres unmarked) [fenpropimorph] was tested. Which “efficacy / persistence of activity” value [1] did it give?
Answer: no longer have an activity
